Values quoted from earlier work as cited in US12653874B2, “Nant cancer vaccine” (NantCell, Inc., priority 2016, dated 2026).

How the values were obtained:
advanced melanoma = details: unresectable or advanced melanoma, result in words
[1] = patients receiving treatment (Conroy 2011)

Compound: rituximab: anti-CD20 antibody
- response rate to single agent retreatment (CD20-positive NHL; rituximab refractory (RR) patients, reasonable estimate, trial data not reported): < 5%
- patients responding to retreatment (CD20-positive NHL; rituximab sensitive (RS) patients): approximately 40%

Compound: FOLFIRINOX
- median OS (pancreatic cancer; [1]): 11.1 months
- median PFS (pancreatic cancer; [1]): 6.4 months
- OS and PFS versus gemcitabine monotherapy (pancreatic cancer; result in words): improves OS and PFS over monotherapy with gemcitabine

Compound: CC(C)(C)c1nc(-c2cccc(NS(=O)(=O)c3c(F)cccc3F)c2F)c(-c2ccnc(N)n2)s1 [Dabrafenib]
- PFS (advanced melanoma): improvement in PFS when compared to dacarbazine
